Reference: US12139526B2, “Modified chimeric receptors and related compositions and methods” (Juno Therapeutics, Inc., priority 2015, dated 2024)

B1: K28L: variant anti-CD19 CAR / junction region with K28L, numbering SEQ ID NO:5 (protein)
chain: FWVLVVVGGVLACYSLLVTVAFIIFWVLRGRKKLLYIFKQPFMRPVQTTQEEDGCSCRFPEEEEGGCEL
modifications: CD28-4-1BB

Experiments:
Assay in all cases: REVEAL Epitope Discovery System in vitro MHC-peptide binding score
[1] = molecular target: HLA-A*02:01 (Homo sapiens, UniProt P04439, D140Y/D185E/D98H/E176V/E277Q/G131W/G231S/I119V/I121R/I166T/I218V/L300P/L318F/N151K/N90K/P208A/P217A/Q86G/Q94H/R138H/R169H/T345S); settings: for A*02:01 In Vitro Score: REVEAL score, positive control peptide set at 100%, greater than 50 = good or high affinity binding
Procedure: (§1) Actual binding affinities for certain HLA class I alleles (A*02:01, A*03:01. A*11:01, and B*08:01) were assessed in vitro for exemplary overlapping 9 amino acid peptide sequences within a portion of the 26 amino acid junction region spanning the CD28 and 4-1BB junction. Specifically, assessment was of a series of overlapping 9-mer peptides derived from the sequence […] (set forth in SEQ ID NO: 7), which contains a portion of the CD28 transmembrane domain and 4-1BB costimulatory domain spanning the junction between the domains (bond joining the two amino acids noted in underline). In addition, a series of overlapping 9-mer peptides of each of a number of different variants of this portion also were assessed, each variant containing a mutation or mutations in this region as described in Example 2.
(§2) The various 9-mer overlapping peptides were synthesized and their purity tested by MALDI-TOF Mass Spectrometry. The synthetic peptides were then incubated with recombinant MHC molecules to assess binding properties using the REVEAL Epitope Discovery System, which is a high-throughput binding assay that measures the degree to which each peptide is able to stabilize a ternary MHC-peptide complex (ProImmune, Oxford, United Kingdom). Each peptide was separately tested for this ability with respect to each of the HLA class I alleles, normalized to the degree observed for a positive control (known T cell epitope for the relevant allele). The results are reported as a score, in which the binding was normalized to the positive control peptide set at 100%.

[2] = molecular target: HLA-A*03:01 (Homo sapiens, UniProt P04439); settings: positive control peptide set at 100%, greater than 50 = good or high affinity binding
Procedure: as §1, §2

[3] = molecular target: HLA-A*11:01 (Homo sapiens, UniProt P04439, A114D/D185E/E176A/F33Y/L180Q/S129P/T187R); set-up: key: % binding, normalized to positive control peptide set at 100%; settings: binding normalized to positive control peptide set at 100%, greater than 50 considered good or high affinity binding
Procedure: as §1, §2

[4] = molecular target: HLA-B*08:01 (Homo sapiens, UniProt P01889, A93T/A95T/D138N/E176V/E187T/K202T/Q94N/R180D/S35A/V36M/Y33D/Y91F); set-up: key: % binding, normalized to positive control peptide set at 100%; settings: binding normalized to positive control peptide set at 100%, greater than 50 considered good or high affinity binding
Procedure: as §1, §2

| Molecule | A*02:01 In Vitro Score [1] | A*03:01 In Vitro [2] | A*11:01 In Vitro Score [3] | B*08:01 In Vitro Score [4] | predicted or actual binding affinity or score for HLA class I ([1]; for at least one HLA allele (A*02:01, A*03:01, A*11:01, B*08:01) and/or at least one peptide, in silico or in vitro) |
| --- | --- | --- | --- | --- | --- |
| AFIIFWVAR [9-mer variant junction peptide, K28A] | 2.20 | 0.50 | 51.80 | 0.20 |  |
| AFIIFWVHR [9-mer variant junction peptide, K28H] | 0.30 | 0.30 | 34.90 | 0.30 |  |
| AFIIFWVSR [9-mer variant junction peptide, K28S] | 4.50 | 0.30 | 54.00 | 0.30 |  |
| FIIFWVHRG [9-mer variant junction peptide, K28H] | 37.30 | 0.00 | 0.90 | 0.20 |  |
| FWVARGRKK [9-mer variant junction peptide, K28A] |  |  | 8.90 |  |  |
| FWVKRGLKK [9-mer variant junction peptide, R31L] | 9.40 |  |  | 6.30 |  |
| FWVKRGNKK [9-mer variant junction peptide, R31N] | 8.70 |  |  |  |  |
| IFWVARGRK [9-mer variant junction peptide, K28A] | 1.00 | 53.70 | 34.90 | 0.00 |  |
| IFWVHRGRK [9-mer variant junction peptide, K28H] | 7.10 | 37.80 | 36.60 | 0.10 |  |
| IFWVKRGAK [9-mer variant junction peptide, R31A] | 13.80 | 22.00 | 69.70 | 2.20 |  |
| IFWVKRGHK [9-mer variant junction peptide, R31H] | 2.20 | 9.00 | 30.90 | 3.20 |  |
| IFWVKRGLK [9-mer variant junction peptide, R31L] | 2.40 | 26.90 | 61.10 | 58.30 |  |
| IFWVKRGNK [9-mer variant junction peptide, R31N] | 3.50 | 8.00 | 45.90 | 0.10 |  |
| IFWVKRGSK [9-mer variant junction peptide, R31S] | 2.40 | 10.40 | 47.90 | 1.20 |  |
| IFWVQRGAK [9-mer variant junction peptide, K28Q/R31A] | 11.70 | 17.00 | 61.30 | 0.20 |  |
| IFWVQRGNK [9-mer variant junction peptide, K28Q/R31N] | 16.10 | 23.20 | 67.50 | 0.10 |  |
| IFWVQRGRK [9-mer variant junction peptide, K28Q] | 6.10 | 36.70 | 128.50 | 0.00 |  |
| IFWVSRGRK [9-mer variant junction peptide, K28S] | 1.30 | 39.20 | 39.20 | 0.00 |  |

| Molecule | A*02:01 In Vitro Score [1] | A*03:01 In Vitro [2] | A*11:01 In Vitro Score [3] | B*08:01 In Vitro Score [4] | predicted or actual binding affinity or score for HLA class I ([1]; for at least one HLA allele (A*02:01, A*03:01, A*11:01, B*08:01) and/or at least one peptide, in silico or in vitro) |
| --- | --- | --- | --- | --- | --- |
| IIFWVARGR [9-mer variant junction peptide, K28A] | 9.60 | 18.60 | 70.60 | 0.30 |  |
| IIFWVHRGR [9-mer variant junction peptide, K28H] | 4.70 | 30.10 | 77.50 | 0.20 |  |
| IIFWVKRGA [9-mer variant junction peptide, R31A] | 85.90 | 42.90 | 22.60 | 0.90 |  |
| IIFWVKRGL [9-mer variant junction peptide, R31L] | 82.20 | 15.90 | 32.40 | 1.70 |  |
| IIFWVKRGN [9-mer variant junction peptide, R31N] | 9.30 | 4.30 | 42.10 | 0.90 |  |
| IIFWVKRGR [9-mer of CD28/4-1BB junction region, mutation none] | 1.70 | 24.30 | 54.50 | 0.00 |  |
| IIFWVKRGS [9-mer variant junction peptide, R31S] | 13.60 | 16.20 | 100.00 | 0.40 |  |
| IIFWVLRGR [9-mer variant junction peptide, K28L] | 8.40 | 2.80 | 35.20 | 0.40 |  |
| IIFWVQRGA [9-mer variant junction peptide, K28Q/R31A] | 95.30 | 2.70 | 56.50 | 0.20 |  |
| IIFWVQRGR [9-mer variant junction peptide, K28Q] | 5.80 | 18.00 | 72.80 | 0.10 |  |
| IIFWVSRGR [9-mer variant junction peptide, K28S] | 2.60 | 25.30 | 68.90 | 0.00 |  |
| VAFIIFWVK [9-mer of CD28/4-1BB junction region, mutation none] | 0.70 | 1.50 | 109.20 | 0.30 |  |
| VAFIIFWVR [9-mer variant junction peptide, K28R] | 1.20 | 0.70 | 34.60 | 0.10 |  |
| VAFIIFWVS [9-mer variant junction peptide, K28S] | 70.60 | 0.70 | 25.10 | 0.10 |  |
| WVARGRKKL [9-mer variant junction peptide, K28A] | 8.80 | 1.30 | 13.80 | 32.40 |  |
| WVQRGNKKS [9-mer variant junction peptide, mutation printed K28Q/L34S] |  |  | 5.00 |  |  |
| B1 |  |  |  |  | reduced predicted or actual binding affinity or score |
